The values that follow come from article PMC8156934, “Photophysical Study and Biological Applications of Synthetic Chalcone-Based Fluorescent Dyes” (Molecules, 2021).

A short description of series [1]: Photophysical properties (UV–Vis absorption and fluorescence spectra). It counts as physicochemical. Conditions: for λabs absorption maximum wavelength / ∆λ stokes shifts (λem − λabs) / λem emission maximum wavelength / Φf fluorescence quantum yields: 2 µM; for λem emission maximum wavelength: excited at the maximum absorption wavelength; for Φf fluorescence quantum yields: n = 3, relative to fluorescein in 0.1 M NaOH. Here is the method: All UV–Vis absorption and fluorescence spectra were recorded on a UV–Vis Spectrophotometer (Agilent Technologies Cary 300, Santa Clara, CA, USA) and a Spectrofluorometer (PerkinElmer LS55, Waltham, MA, USA), respectively. In both experiments, the stock solutions of chalcones 3a–f were prepared as 0.5 mM in DMSO. The appropriate amount of the stock solution was added to DMSO, MeOH, and 0.01 M PBS buffer (pH 7.4) with 3% Tween 80 (3 mL) to obtain the final concentration of 2 µM in the testing solutions. For fluorescence experiments, the emission spectra were recorded at the maximum absorbance wavelength of each compound. The fluorescent quantum yields (Φf) were calculated relative to fluorescein in 0.1 M NaOH as a standard (Φf = 0.95).

Series [2] is described as follows: pH effect on fluorescence emission. It counts as physicochemical. The settings on record: pH range from 2 to 12, 2 µM, 3% Tween 80. Here is the method:
Chalcones 3a–f (2 µM) were dissolved in commercial pH 1–12 buffers purchased from Merck (St. Louis, MO, USA) (glycine/NaCl/HCl for pH 1, citric acid/NaOH/HCl for pH 2–6, Na2HPO4/KH2PO4 for pH 7, boric acid/ KCl/NaOH for pH 8–11, Na3PO4/NaOH for pH 12) in the presence of Tween 80 (3% w/w). The actual pH values of the final buffer solutions were measured by a pH meter. The resulting solutions were examined by a Spectrofluorometer (PerkinElmer LS55) at the maximum absorbance wavelength of each compound.

The nature of series [3]: Photo-stability test (photobleaching under 250 W blue light). Format: physicochemical. The settings on record: DMSO, 250 W blue light (380–500 nm), after 30 min irradiation. Here is the method: Chalcones 3a–f were dissolved in DMSO at the final concentration of 1 × 10^−6 M for measuring absorption and emission intensity. Then, 3a–f were irradiated at 250 W (blue-lamp) at a distance of 75 cm. The UV–Visible absorption and fluorescence spectra of the solutions were measured at different time points including 0, 1, 5, 10, 15, 20, and 30 min. Photo-stability was reported in terms of photobleaching absorption and emission (%) calculated from the change of absorption and emission intensity at the absorption and emission maxima before and after irradiation.

The subject of another series is HEK-293. The series is described as follows: Cell viability MTT assay, normal cells. It counts as cell-based. Conditions: Homo sapiens, HEK293; HEK-293, 24 h, MTT; read-out: IC50. Here is the method:
(§1) For fluorescence imaging of living cells, human embryonic kidney 293 (HEK-293, ATCC) and human hepatoma cancer cell (HepG2, ATCC) were cultured in Dulbecco′s Modified Eagle′s Medium (DMEM, HyClone) supplemented with 10% Fetal Bovine Serum (FBS, Gibco, Carlsbad, CA, USA) and 1% Penicillin/Streptomycin Solution 100X (Corning, Corning, NY, USA). All cells were cultured in a humidified incubator at 37 °C with 5% CO2. HEK-293 and HepG2 cells, approximately 1 × 10^4 cells, were seeded on 8-well chambered cover glasses (LabTek, Nunc, Carlsbad, CA, USA) and incubated in complete medium for 24 h. After that, the cells were treated with 5 μM stock solutions of 3a–f in DMSO/cell culture medium containing 10% FBS (0.25% DMSO), for 0, 1, 3, and 6 h. Then, the cells were washed twice with 0.01 M PBS before being visualized under a Laser-Scanning Confocal Microscope (Nikon A1Rsi) with a 60× oil immersion objective lens and living cell workstation with the excitation channel at 488 nm.
(§2) The cells were seeded on a 96-well plate, approximately 7 × 10^3 cells per well, and incubated in complete medium for 24 h. After that, the cells were treated with 0, 1, 5, 10, 20, and 50 μM of chalcones 3a–f, and culturing continued for 24 h. After incubation, the cells were washed three times with 10 mM PBS and treated with […] of methylthiazolyldiphenyl-tetrazolium bromide (MTT reagent, 0.5 mg mL^−1, Sigma-Aldrich, St. Louis, MO, USA) for 2–3 h. After medium removal, DMSO was added to dissolve the formazan product, and cell viability was determined by UV–Vis absorption of the resulting formazan at a wavelength of 560 nm in a microplate reader (BMG Labtech/SPECTROstar Nano, Ortenberg, Germany).
In general terms: Tetrazolium assays rely on reduction of a dye to a coloured formazan, in cell work by metabolically active cells.

A further series has as its system HepG2. Briefly: Cell viability MTT assay, cancer cells. It counts as cell-based. The settings on record: Homo sapiens; HepG2, 24 h, MTT; read-out: IC50. Here is the method: as §1, §2
A further series concerns E. coli 780. The series is described as follows: Antibacterial activity test (MIC, MBC, growth curve). It counts as cell-based, Escherichia coli. Conditions: Escherichia coli, E. coli 780, mean ± SD of three independent experiments; for MBC: read-out: MBC; for MIC: read-out: MIC. The procedure: (§3) All bacteria strains were obtained from the Thailand Institute of Scientific and Technological Research (TISTR). The antibacterial activity of chalcones 3a–f was determined by the minimal inhibitory concentration (MIC) and the minimal bactericidal concentration (MBC) against the Gram-positive (S. aureus 1466, TISTR 1466) and Gram-negative (E.coli 780, TISTR 780) bacteria. The stocks of chalcones 3a–f (0.60 mg/mL) were serially diluted in Muller–Hinton (MH) broth to obtain concentrations in the range of 250–1000 µM. The solutions of chalcones 3a–f (100 µL) at different concentrations were added in the culture of the tested bacteria (100 µL) at a concentration of 1 × 10^6 colony-forming units/mL (CFU/mL) in MH broth at 37 °C with shaking at 80 rpm. The bacterial numbers were determined by measuring the optical density at 600 nm by a UV–Vis spectrometer. […] To determine the MBC values, the bacterial cultures (10 µL) containing the solutions of chalcones 3a–f at MIC and three higher concentrations were dropped on MH agar plates.

The next series deals with S. aureus 1466. The description is as above. It counts as cell-based, Staphylococcus aureus. The settings on record: Staphylococcus aureus, S. aureus 1466, mean ± SD of three independent experiments; for MBC: read-out: MBC; for MIC: read-out: MIC. Here is the method:
as §3

For series [4] the following is noted: 0.1 M NaOH, used as standard; no reference given; cited from earlier work.

In brackets after ≈: the same amount, converted by molar mass.

The term IC50 denotes the concentration that gives 50% inhibition. By MBC is commonly meant the lowest tested concentration that kills the bacteria rather than only halting them. Broadly, the MIC is the lowest concentration that inhibits growth of the organism. Turning to `Cc1ccc(C(=O)/C=C/c2ccc(N(C)C)cc2)cc1` [3e], in series [1] (DMSO), the ε molar absorptivity is 32000 M⁻¹ cm⁻¹, the “λabs absorption maximum wavelength” value was 420 nm, the “∆λ stokes shifts (λem − λabs)” value is recorded as 119 nm and the “λem emission maximum wavelength” value is given as 539 nm. Besides, the “Φf fluorescence quantum yields” value in series [1] (DMSO) is recorded as 0.50 ± 0.02. Besides, in series [1] (MeOH), the ε molar absorptivity worked out at 32000 M⁻¹ cm⁻¹, the “λabs absorption maximum wavelength” value is given as 417 nm, the “∆λ stokes shifts (λem − λabs)” value turned out to be 130 nm and the “λem emission maximum wavelength” value amounted to 547 nm. In addition, the “Φf fluorescence quantum yields” value in series [1] (MeOH) was 0.012 ± 0.007. Further, in series [1] (PBS (3%w/w tween 80)), the ε molar absorptivity was 28000 M⁻¹ cm⁻¹, the “λabs absorption maximum wavelength” value is recorded as 420 nm, the “∆λ stokes shifts (λem − λabs)” value amounted to 101 nm and the “λem emission maximum wavelength” value was 521 nm. In addition, the “Φf fluorescence quantum yields” value in series [1] (PBS (3%w/w tween 80)) is 0.18 ± 0.03. For the same compound, in series [2], the fluorescence emission result is on record as “Higher emission peaks”. In addition, in series [3], the “% photobleaching of absorbance” value was found to be 46% and the “% photobleaching of fluorescence” value was found to be 21%. In addition, in the series with HEK-293, the half-inhibitory concentration (IC50) is 96 µM. Further, the IC50 with HepG2 was 54 µM. In the series with E. coli 780, the MBC amounted to 1000 ± 0.02 µM (≈ 265 µg/mL) and the MIC came out at 375 ± 0.01 µM (≈ 99.5 µg/mL). For the same compound, in the series with S. aureus 1466, the minimum bactericidal concentration (MBC) was 1000 ± 0.02 µM (≈ 265 µg/mL) and the MIC is 375 ± 0.03 µM (≈ 99.5 µg/mL).
On to `CN(C)c1ccc(/C=C/C(=O)c2ccc(N)cc2)cc1` [3f], for which, in series [1] (DMSO), the ε molar absorptivity was 35000 M⁻¹ cm⁻¹, the “λabs absorption maximum wavelength” value is 412 nm, the “∆λ stokes shifts (λem − λabs)” value came out at 100 nm and the “λem emission maximum wavelength” value is given as 512 nm. In series [1] (DMSO), the “Φf fluorescence quantum yields” value turned out to be 0.21 ± 0.03. In series [1] (MeOH), the ε molar absorptivity was 31000 M⁻¹ cm⁻¹, the “λabs absorption maximum wavelength” value turned out to be 414 nm, the “∆λ stokes shifts (λem − λabs)” value came to 135 nm and the “λem emission maximum wavelength” value was found to be 549 nm. Moreover, in series [1] (MeOH), the “Φf fluorescence quantum yields” value amounted to 0.027 ± 0.011. In addition, in series [1] (PBS (3%w/w tween 80)), the ε molar absorptivity worked out at 34000 M⁻¹ cm⁻¹, the “λabs absorption maximum wavelength” value was 412 nm, the “∆λ stokes shifts (λem − λabs)” value stood at 112 nm and the “λem emission maximum wavelength” value came out at 524 nm. In addition, the “Φf fluorescence quantum yields” value in series [1] (PBS (3%w/w tween 80)) is 0.18 ± 0.02. The fluorescence emission entry in series [2] is “Higher emission peaks”. Further, in series [3], the “% photobleaching of absorbance” value was 48% and the “% photobleaching of fluorescence” value came out at 47%. Moreover, the 50% inhibitory concentration (IC50) with HEK-293 was more than 100 µM. Besides, the IC50 in the series with HepG2 was found to be 54 µM. Moreover, in the series on E. coli 780, the MBC is 750 ± 0.01 µM (≈ 200 µg/mL) and the minimum inhibitory concentration (MIC) stood at 375 ± 0.01 µM (≈ 99.9 µg/mL). In addition, in the series on S. aureus 1466, the minimal bactericidal concentration (MBC) is 1000 ± 0.04 µM (≈ 266 µg/mL) and the minimum inhibitory concentration (MIC) stood at 375 ± 0.01 µM (≈ 99.9 µg/mL).
Regarding `O=C1OC2(c3ccc(O)cc3Oc3cc(O)ccc32)c2ccccc21` [fluorescein], the “Φf fluorescent quantum yield of the standard” value in series [4] was 0.95.
